Data from publication PMC8834644, “Effect of FKBP12-Derived Intracellular Peptides on Rapamycin-Induced FKBP–FRB Interaction and Autophagy” (Cells, 2022).

What was measured:
[1] = test system: rapamycin-induced FKBP–FRB interaction within HEK293 cells; experiment: NanoBiT luciferase structural complementation assay of rapamycin-induced FKBP–FRB interaction; type: cell-based, human; conditions: HEK293 co-transfected with FRB-LgBit and FKBP-SmBiT, 200 nM rapamycin, RLU for 60 min, qualitative; for peptide concentration inhibiting rapamycin-induced FKBP–FRB interaction: peptide added with rapamycin plus booster after 30 min, at least five determinations in triplicates
Protocol: The protein complementation assay technology used herein, NanoBiT® (Promega, Madison, WI, USA), was commercially designed to investigate inducible PPI under in vivo cellular conditions, allowing the analyses of distinctive molecules that, introduced within cells, can modify inducible PPI [58]. All experimental procedures were performed according to the manufacturer’s recommendations. Briefly, transient transfections were performed with NanoBiT® PPI Control Pair FKBP–FRB (Promega, Madison, WI, USA; catalog number N2016), containing the FRB-LgBit and FKBP-SmBiT vectors (NanoBiT® PPI Control Pair FKBP, FRB; catalog number N2016, Promega, Madison, WI, USA). Plasmids were co-transfected into HEK293 cells using FuGENE® 6 Transfection Reagent (Promega, Madison, WI, USA), according to the recommendations of the manufacturers. Cells transfected in the absence of DNA were the negative controls of the experiments, whereas the green fluorescent protein expressing pEGFP plasmid (Clontech, Mountain View, CA, USA; 100 ng) was used to evaluate transfections efficiencies; after 30 h of transfection, the pEGFP expression was easily assessed by fluorescent microscopy (data not shown).
HEK293 cells (approximately 10^4) cultured in a 96-well plate in DMEM high-glucose medium, supplemented with 10% FBS and 1% penicillin/streptomycin, were transiently co-transfected with 200 ng of both […] and FKBP-SmBiT vectors (NanoBiT® PPI Control Pair FKBP, FRB; catalog number N2016, Promega, Madison, WI, USA); this final plasmid concentration of 200 ng was defined previously testing different plasmid concentrations, as shown in Supplemental Figure S1A. The transfected cells were incubated in Opti-MEM® I Reduced Serum Medium culture medium (Gibco, Gaithersburg, MD, USA) for 2 h and then treated with 200 nM of rapamycin (BPSBioscience, CAS 53123-88-9, San Diego, CA, USA) diluted in Opti-MEM®/0.01% DMSO (Gibco, Gaithersburg, MD, USA; this rapamycin concentration of 200 nM was defined previously testing different concentrations, as shown in Supplemental Figure S1B). […] Graphs of RLU versus time were plotted by GraphPad Prism (GraphPad, San Diego, CA, USA). Control experiments were conducted using VFD10 and VFD7 without cpp covalently bound, in addition to cpp alone (Supplemental Figure S2).

[2] = test system: Atg5^+/+ mouse embryonic fibroblasts cells (MEF); experiment: Cell viability (MTT) after hypoxia-reoxygenation, Atg5+/+ MEF; type: cell-based; conditions: 1 µM peptide from 30 min before ischemia with boosters, 3 h hypoxia, 3 h reoxygenation; n = 3 independent experiments; vs. cpp
Protocol: (§1) These experiments were performed to evaluate the possible pharmacological application of VFD7-cpp and additional selected peptides on cell viability, following an ischemic challenge. These experiments also contributed to investigate the possible biological significance of InPeps for cell viability following hypoxia-reoxygenation. Therefore, herein the effect of peptides was evaluated in wild type mouse embryonic fibroblasts cells (MEF) expressing Atg5 (Atg5^+/+) and in the MEF missing autophagy pathway due to the lack of Atg5 (Atg5^−/−); Atg5 is indispensable in both canonical and non-canonical autophagy. Atg5^+/+ and Atg5^−/− MEF were cultured in a 96-well plate in DMEM high-glucose medium supplemented with 10% FBS and 1% penicillin/streptomycin, as previously described. […] After the protocol, cell viability was measured by using tetrazolium salt 3-(4,5-Dimethylthiazol 2-yl)-2,5-diphenyltetrazolium bromide (MTT) assay; these assays measure the mitochondrial metabolic rate and indirectly reflect the viable cell numbers, which are the most commonly used method to evaluate the effect of compounds on cell viability on cultured cells. […]

[3] = test system: autophagy-deficient Atg5^−/− MEF cells; experiment: Cell viability (MTT) after hypoxia-reoxygenation, Atg5-/- MEF; type: cell-based, mouse; conditions: 1 µM peptide from 30 min before ischemia with boosters, 3 h hypoxia, 3 h reoxygenation; n = 3 independent experiments
Protocol: as §1

[4] = test system: PPI between cytosolic brain proteins and 14-3-3 epsilon; conditions: surface plasmon resonance; cited from earlier work
Protocol: (§2) VFD10 and VFD7 (10–50 µM) were shown by surface plasmon resonance to inhibit PPI between cytosolic brain proteins and both calmodulin (CaM) and 14-3-3 epsilon. VFD7 (5–20 µM) introduced into the HEK293 cells by means of transient membra ...

[5] = test system: PPI between cytosolic brain proteins and calmodulin (CaM); conditions: surface plasmon resonance; cited from earlier work
Protocol: as §2

[6] = test system: HEK293 cells; conditions: introduced into HEK293 cells by transient membrane permeabilization with CHAPS; cited from earlier work
Protocol: as §2

[7] = test system: thimet oligopeptidase and CaM; conditions: in vitro surface plasmon resonance; cited from earlier work
[8] = after 30 min of internalization into Chinese hamster ovarian cells; random control peptide; cited from earlier work
Protocol: Hundreds of InPeps have been described from the most diverse sources, including plants, yeast, fish, and mammals. Despite of the strong evidence that InPeps are natural constituents of the cells, the expected short half-life of peptides within cells full of peptidases contests their stability and biological significance. […] For example, after 30 min of internalization into Chinese hamster ovarian cells, the ...

VFEVELLYGRKKKRRQRRR [VFE7-cpp, VFD7-cpp with D substituted to E]
effect on rapamycin-induced FKBP–FRB interaction (in words) [1]: unable to alter rapamycin-induced FKBP–FRB interactions

EVELLYGRKKKRRQRRR [EVE5-cpp, derived from VFD5-cpp, D to E]
effect on rapamycin-induced FKBP–FRB interaction (in words) [1]: unable to alter rapamycin-induced FKBP–FRB interactions

AVELLYGRKKKRRQRRR [AVE5-cpp, derived from VFD5-cpp, D to A]
effect on rapamycin-induced FKBP–FRB interaction (in words) [1]: unable to alter rapamycin-induced FKBP–FRB interactions

DVELLYGRKKRRQRRR [VFD5-cpp, N-terminally shortened VFD7-cpp derivative]
effect on rapamycin-induced FKBP–FRB interaction (in words) [1]: reduced potencies compared to VFD6-cpp or VFD7-cpp | peptide concentration inhibiting rapamycin-induced FKBP–FRB interaction [1]: 500 nM

FDVELLYGRKKKRRQRRR [VFD6-cpp, FDVELL (VFD6) covalently coupled to cpp]
cell viability after hypoxia-reoxygenation (MTT) [2]: increase cell viability | cell viability after hypoxia-reoxygenation (MTT) [3]: but not on autophagy-deficient Atg5^−/− MEF cells | peptide concentration inhibiting rapamycin-induced FKBP–FRB interaction [1]: 1 to 500 nM

VFDVELLKLE [VFD10, InPep … derived from FKBP12]
peptide concentration shown to inhibit PPI with 14-3-3 epsilon [4]: 10 to 50 µM | peptide concentration shown to inhibit PPI with calmodulin [5]: 10 to 50 µM | effect on rapamycin-induced FKBP–FRB interaction (in words) [1]: have no effect

VFDVELL [VFD7, InPep VFDVELL derived from FKBP12]
peptide concentration shown to increase cytosolic Ca2+ concentrations [6]: 5 to 20 µM | peptide concentration shown to inhibit PPI with 14-3-3 epsilon [4]: 10 to 50 µM | peptide concentration shown to inhibit PPI with calmodulin [5]: 10 to 50 µM | effect on rapamycin-induced FKBP–FRB interaction (in words) [1]: have no effect | effect on thimet oligopeptidase–CaM interaction (in words) [7]: inhibits the interaction but does not disrupt the association

YGRKKKRRQRRR [cpp, cell-penetrating peptide used alone as control, reference compound]
effect on rapamycin-induced FKBP–FRB interaction (in words) [1]: have no effect

VFAVELLYGRKKKRRQRRR [VFA7-cpp, VFD7-cpp with D substituted to A]
effect on rapamycin-induced FKBP–FRB interaction (in words) [1]: unable to alter rapamycin-induced FKBP–FRB interactions

VELLYGRKKRRQRRR [VFD4-cpp, N-terminally shortened VFD7-cpp derivative]
effect on rapamycin-induced FKBP–FRB interaction (in words) [1]: reduced potencies compared to VFD6-cpp or VFD7-cpp | peptide concentration inhibiting rapamycin-induced FKBP–FRB interaction [1]: 500 nM

VFDVELLKLEYGRKKKRRQRRR [VFD10-cpp, VFD10 covalently coupled to cpp at C-terminus]
effect on rapamycin-induced FKBP–FRB interaction (in words) [1]: unable to alter rapamycin-induced FKBP–FRB interactions

VNMVPVGWASFR [random peptide used as the control in an earlier study]
peptide recovered after internalization [8]: 100%
